PubChem BioAssay (NCI)
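Each compound was tested at five concentrations against cells in 96-well plates for 48 hours. GI50 = concentration required for 50% inhibition of growth. TGI marks complete inhibition of growth.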

Key:
Test in all cases: growth of human tumour cells (NCI), 48 h
[1] = test system: NCI-H226 lung
[2] = test system: M14 melanoma
[3] = test system: HL-60(TB) leukemia
[4] = test system: T-47D breast
[5] = test system: MDA-MB-231 breast
[6] = test system: SF-268 CNS
[7] = test system: CCRF-CEM leukemia
[8] = test system: UACC-62 melanoma
[9] = test system: OVCAR-3 ovarian
[10] = test system: EKVX NSCLC
[11] = test system: NCI-H460 lung
[12] = test system: BT-549 breast
[13] = test system: SK-MEL-2 melanoma
[14] = test system: LOX IMVI melanoma
[15] = test system: U251 CNS
[16] = test system: A549 NSCLC
[17] = test system: SNB-75 CNS
[18] = test system: HT29 colon
[19] = test system: UACC-257 melanoma
[20] = test system: MALME-3M melanoma
[21] = test system: 786-0 renal
[22] = test system: HCT-116 colon
[23] = test system: SK-MEL-28 melanoma
[24] = test system: HOP-92 NSCLC
[25] = test system: MOLT-4 leukemia
[26] = test system: KM12 colon
[27] = test system: HOP-62 NSCLC
[28] = test system: NCI-H522 lung
[29] = test system: A498 renal
[30] = test system: SW-620 colon
[31] = test system: TK-10 renal
[32] = test system: HCT-15 colon
[33] = test system: K-562 leukemia
[34] = test system: RXF 393 renal
[35] = test system: NCI-H23 lung
[36] = test system: SK-OV-3 ovarian
[37] = test system: SK-MEL-5 melanoma
[38] = test system: NCI/ADR-RES ovarian
[39] = test system: IGROV1 ovarian
[40] = test system: SR leukemia
[41] = test system: OVCAR-8 ovarian
[42] = test system: ACHN renal
[43] = test system: UO-31 renal
[44] = test system: SF-295 CNS
[45] = test system: CAKI-1 renal
[46] = test system: HS 578T breast
[47] = test system: DU-145 prostate
[48] = test system: PC-3 prostate
[49] = test system: RPMI-8226 leukemia
[50] = test system: MDA-MB-435
[51] = test system: OVCAR-5 ovarian
[52] = test system: OVCAR-4 ovarian
[53] = test system: SNB-19 CNS
[54] = test system: HCC-2998 colon
[55] = test system: COLO 205 colon
[56] = test system: MCF7 breast
[57] = test system: SF-539 CNS
[58] = test system: SN12C renal

In the case of `OC1CN2CCS[C@H]2C(O)C1O` (some centres not stated), the TGI [1] is reported as greater than 100000 nM, the TGI [2] is reported as greater than 100000 nM and the TGI [3] is reported as greater than 100000 nM. It also gave a TGI [4] greater than 100000 nM, a TGI [5] greater than 100000 nM and a TGI [6] greater than 100000 nM. The TGI [7] was greater than 100000 nM, the TGI [8] was greater than 100000 nM and the TGI [9] was greater than 100000 nM. The TGI [10] was greater than 100000 nM, the TGI [11] was greater than 100000 nM and the TGI [12] was greater than 100000 nM. The TGI [13] was greater than 100000 nM, the TGI [14] was greater than 100000 nM and the TGI [15] was greater than 100000 nM. The TGI [16] was greater than 100000 nM, the TGI [17] was greater than 100000 nM and the TGI [18] was greater than 100000 nM. It also gave a TGI [19] greater than 100000 nM, a TGI [20] greater than 100000 nM and a TGI [21] greater than 100000 nM. The TGI [22] was greater than 100000 nM, the TGI [23] was greater than 100000 nM and the TGI [24] was greater than 100000 nM. It also gave a TGI [25] greater than 100000 nM, a TGI [26] greater than 100000 nM and a TGI [27] greater than 100000 nM. It also gave a TGI [28] greater than 100000 nM, a TGI [29] greater than 100000 nM and a TGI [30] greater than 100000 nM. For the same compound, the TGI [31] was greater than 100000 nM, the TGI [32] was greater than 100000 nM and the TGI [33] was greater than 100000 nM. It also gave a TGI [34] greater than 100000 nM, a TGI [35] greater than 100000 nM and a TGI [36] greater than 100000 nM. For the same compound, the TGI [37] was greater than 100000 nM, the TGI [38] was greater than 100000 nM and the TGI [39] was greater than 100000 nM. For the same compound, the TGI [40] was greater than 100000 nM, the TGI [41] was greater than 100000 nM and the TGI [42] was greater than 100000 nM. It also gave a TGI [43] greater than 100000 nM, a TGI [44] greater than 100000 nM and a TGI [45] greater than 100000 nM. It also gave a TGI [46] greater than 100000 nM, a TGI [47] greater than 100000 nM and a TGI [48] greater than 100000 nM. It also gave a TGI [49] greater than 100000 nM, a TGI [50] greater than 100000 nM and a TGI [51] greater than 100000 nM. The TGI [52] was greater than 100000 nM, the TGI [53] was greater than 100000 nM and the TGI [54] was greater than 100000 nM. For the same compound, the TGI [55] was greater than 100000 nM.

`COc1cc(C(=O)c2cc3c(cc2C)OCO3)cc(OC)c1OC` gave a GI50 [1] of 554 nM, a TGI [1] greater than 100000 nM and a GI50 [2] of 67.1 nM. It also gave a TGI [2] greater than 100000 nM, a GI50 [3] of 32.9 nM and a TGI [3] of 152 nM. It also gave a GI50 [4] of 923 nM, a TGI [4] greater than 100000 nM and a GI50 [5] of 147 nM. The TGI [5] was greater than 100000 nM, the GI50 [6] was 360 nM and the TGI [6] was greater than 100000 nM. For the same compound, the GI50 [7] was 43.4 nM, the TGI [7] was greater than 100000 nM and the GI50 [8] was 247 nM. The TGI [8] was greater than 100000 nM, the GI50 [9] was 76.5 nM and the GI50 [11] was 124 nM. The TGI [11] was greater than 33200 nM, the GI50 [56] was 36.6 nM and the TGI [56] was greater than 100000 nM. For the same compound, the GI50 [12] was 211 nM, the TGI [12] was greater than 100000 nM and the GI50 [13] was 734 nM. The TGI [13] was greater than 100000 nM, the GI50 [14] was 551 nM and the TGI [14] was greater than 100000 nM. It also gave a GI50 [15] of 158 nM, a TGI [15] greater than 100000 nM and a GI50 [16] of 125 nM. For the same compound, the TGI [16] was greater than 100000 nM, the GI50 [17] was 42.9 nM and the TGI [17] was greater than 100000 nM. The GI50 [18] was 105 nM, the TGI [18] was greater than 100000 nM and the GI50 [19] was 91700 nM. It also gave a TGI [19] greater than 100000 nM, a GI50 [57] of 61.7 nM and a TGI [57] of 376 nM. For the same compound, the GI50 [21] was 322 nM, the TGI [21] was greater than 100000 nM and the GI50 [22] was 68.2 nM. It also gave a TGI [22] greater than 100000 nM, a GI50 [23] of 87.9 nM and a TGI [23] greater than 100000 nM. The GI50 [24] was 85.5 nM, the TGI [24] was 48600 nM and the GI50 [25] was 117 nM. It also gave a TGI [25] greater than 100000 nM, a GI50 [26] of 70 nM and a TGI [26] greater than 100000 nM. It also gave a GI50 [27] of 170 nM, a TGI [27] greater than 100000 nM and a GI50 [28] of 260 nM. The TGI [28] was 3900 nM, the GI50 [29] was 32.2 nM and the TGI [29] was 199 nM. For the same compound, the GI50 [30] was 60.8 nM, the TGI [30] was greater than 100000 nM and the GI50 [31] was 34200 nM. For the same compound, the TGI [31] was greater than 100000 nM, the GI50 [32] was 52.8 nM and the TGI [32] was greater than 100000 nM. For the same compound, the GI50 [33] was 51 nM, the TGI [33] was greater than 100000 nM and the GI50 [34] was 51.5 nM. For the same compound, the TGI [34] was greater than 100000 nM, the GI50 [35] was 319 nM and the TGI [35] was greater than 100000 nM. For the same compound, the GI50 [36] was 87.4 nM, the TGI [36] was greater than 100000 nM and the GI50 [37] was 45.4 nM. For the same compound, the TGI [37] was 1740 nM, the GI50 [38] was 226 nM and the TGI [38] was greater than 100000 nM. The GI50 [39] was 371 nM, the TGI [39] was greater than 100000 nM and the GI50 [40] was 41.7 nM. For the same compound, the TGI [40] was greater than 100000 nM, the GI50 [41] was 317 nM and the TGI [41] was greater than 100000 nM. It also gave a GI50 [42] of 289 nM, a TGI [42] greater than 100000 nM and a GI50 [43] of 624 nM. For the same compound, the TGI [43] was greater than 100000 nM, the GI50 [44] was 102 nM and the TGI [44] was greater than 100000 nM. The GI50 [45] was 208 nM, the TGI [45] was greater than 100000 nM and the GI50 [46] was 174 nM. It also gave a TGI [46] greater than 100000 nM, a GI50 [58] of 289 nM and a TGI [58] greater than 100000 nM. For the same compound, the GI50 [48] was 141 nM, the TGI [48] was greater than 100000 nM and the GI50 [49] was 284 nM. The TGI [49] was greater than 67300 nM, the GI50 [51] was 439 nM and the TGI [51] was greater than 100000 nM. It also gave a GI50 [52] of 830 nM, a TGI [52] greater than 100000 nM and a TGI [53] greater than 100000 nM. It also gave a GI50 [54] of 218 nM, a TGI [54] greater than 100000 nM and a GI50 [55] of 58.4 nM. It also gave a TGI [55] of 413 nM.

For `COc1cc2c3c(n(CCCNCCCNCCCn4c5c(c6ccccc6c4=O)C(=O)c4ccccc4-5)c(=O)c2cc1OC)-c1cc2c(cc1C3=O)OCO2`, the GI50 [2] was 987 nM, the TGI [2] was 2150 nM and the GI50 [6] was less than 10 nM. For the same compound, the TGI [6] was 21.7 nM, the GI50 [10] was less than 10 nM and the TGI [10] was 578 nM. It also gave a GI50 [11] of less than 10 nM, a TGI [11] of 11.3 nM and a GI50 [12] of less than 10 nM. The TGI [12] was 1100 nM, the GI50 [13] was 640 nM and the TGI [13] was 3100 nM. It also gave a GI50 [14] of less than 10 nM, a TGI [14] of less than 36.1 nM and a GI50 [15] of less than 10 nM. For the same compound, the TGI [15] was 20.5 nM, the GI50 [16] was 20.1 nM and the TGI [16] was 2300 nM. The GI50 [57] was less than 10 nM, the TGI [21] was 1070 nM and the GI50 [22] was less than 15 nM. It also gave a TGI [22] of 263 nM, a GI50 [25] of less than 10 nM and a TGI [25] greater than 100000 nM. For the same compound, the GI50 [27] was less than 43.4 nM, the TGI [27] was 695 nM and the GI50 [30] was less than 10 nM. The TGI [30] was 197 nM, the GI50 [33] was 40.3 nM and the TGI [33] was greater than 100000 nM. The GI50 [35] was less than 10 nM, the TGI [35] was 82.6 nM and the GI50 [37] was 29.8 nM. It also gave a TGI [37] of 634 nM, a GI50 [38] greater than 40500 nM and a TGI [38] greater than 67100 nM. It also gave a GI50 [39] of less than 10 nM, a TGI [39] greater than 100000 nM and a GI50 [42] of less than 10 nM. The TGI [42] was less than 21.9 nM, the GI50 [43] was 27.2 nM and the TGI [43] was 1690 nM. For the same compound, the GI50 [45] was 158 nM, the TGI [45] was 2530 nM and the GI50 [47] was less than 10 nM. It also gave a TGI [47] of 213 nM, a GI50 [50] of 154 nM and a TGI [50] of 1680 nM.

For `COc1cc(CC2C(=O)NC(=O)NC2=O)ccc1OCc1ccccc1`, the GI50 [17] was 38 µg/mL, the GI50 [46] was 91.3 µg/mL and the GI50 [52] was 59.8 µg/mL.
